Data published in patent US9539141B2, “System and method for ocular iontophoresis with buffering” (Eyegate Pharmaceuticals, Inc., priority 2008, dated 2017).

Assay: pH of aqueous solution at dosing concentration
Settings: aqueous solution at dosing concentration of 40 mg/mL

pH of aqueous solution: 5.7
Structure (SMILES): C[C@@H]1C[C@H]2[C@@H]3CCC4=CC(=O)C=C[C@]4(C)[C@@]3(F)[C@@H](O)C[C@]2(C)[C@@]1(O)C(=O)COP(=O)(O)O [dexamethasone phosphate]
